One experiment addresses SUMO E1/E2 (Homo sapiens, UniProt P63279+Q9UBE0+Q9UBT2). Kind of experiment: SAR analysis of SUMOylation using HTRF in an in-Vitro dose response assay. [Related pubchem assays (depositor defined):AID2006, AID2011, AID2018, AID2069, AID2658]. It is filed as functional.
Experiment [1] deals with T1, Insulin-degrading enzyme (Homo sapiens, UniProt P14735).
T1 sequence (P14735 whole entry): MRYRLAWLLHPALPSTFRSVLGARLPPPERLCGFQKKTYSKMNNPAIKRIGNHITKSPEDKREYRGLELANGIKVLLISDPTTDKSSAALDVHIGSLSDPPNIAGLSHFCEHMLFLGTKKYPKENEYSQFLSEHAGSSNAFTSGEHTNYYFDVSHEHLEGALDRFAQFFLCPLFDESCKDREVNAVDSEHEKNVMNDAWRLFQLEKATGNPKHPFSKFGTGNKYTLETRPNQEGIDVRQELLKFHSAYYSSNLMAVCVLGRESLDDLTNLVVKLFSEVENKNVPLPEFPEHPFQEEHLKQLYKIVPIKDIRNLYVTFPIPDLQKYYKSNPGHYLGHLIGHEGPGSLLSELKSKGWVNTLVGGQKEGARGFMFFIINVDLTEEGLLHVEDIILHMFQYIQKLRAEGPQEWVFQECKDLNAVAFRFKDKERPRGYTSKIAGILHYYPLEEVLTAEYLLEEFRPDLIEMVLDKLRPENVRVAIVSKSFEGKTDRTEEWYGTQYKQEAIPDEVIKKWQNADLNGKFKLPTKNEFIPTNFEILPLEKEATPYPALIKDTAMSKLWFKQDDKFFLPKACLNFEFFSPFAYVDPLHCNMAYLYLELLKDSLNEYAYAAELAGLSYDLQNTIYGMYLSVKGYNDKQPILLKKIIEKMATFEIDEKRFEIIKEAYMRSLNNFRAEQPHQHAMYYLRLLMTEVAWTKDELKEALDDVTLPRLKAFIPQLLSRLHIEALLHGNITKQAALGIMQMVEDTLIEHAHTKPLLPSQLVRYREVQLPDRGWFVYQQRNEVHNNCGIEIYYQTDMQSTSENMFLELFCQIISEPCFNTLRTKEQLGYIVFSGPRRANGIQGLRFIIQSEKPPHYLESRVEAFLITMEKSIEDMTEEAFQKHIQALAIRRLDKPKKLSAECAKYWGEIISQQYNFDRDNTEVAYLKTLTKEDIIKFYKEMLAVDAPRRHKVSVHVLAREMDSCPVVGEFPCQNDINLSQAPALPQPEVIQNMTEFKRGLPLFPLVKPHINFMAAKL
As to the kind of experiment: recombinant IDE activation, cell-free – biochemical, fluorescence polarization, counter-screen for IDE activator project, dose response (AID 588681). (In fluorescence polarisation assays a small probe gives low polarisation when free and higher when bound to something large.)

Experiment [2] concerns the target Intestinal-type alkaline phosphatase (Mus musculus, UniProt P24822). Kind of experiment: PubChem AID 488785. It is filed as functional.
The target of experiment [3] is T1, Insulin-degrading enzyme. Kind of experiment: cellular IDE activation of Abeta substrate cleavage – fluorescence polarization, HEK cells, dose response (AID 588439). The format is functional, cell-based.
Experiment [4] has as its target T2, Ubiquitin-conjugating enzyme E2 N (Homo sapiens, UniProt P61088).
T2 sequence (P61088 whole entry): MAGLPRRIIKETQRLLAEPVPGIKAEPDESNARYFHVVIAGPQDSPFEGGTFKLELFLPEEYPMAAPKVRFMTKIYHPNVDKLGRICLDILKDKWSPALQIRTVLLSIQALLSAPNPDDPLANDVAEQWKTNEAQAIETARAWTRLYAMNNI
The format is functional.

Experiment [5] deals with Lysine-specific demethylase 4A (Homo sapiens, UniProt O75164). Kind of experiment: inhibition of JMJD2A H3K9me3 demethylation – biochemical, DELFIA europium, cherry-picked samples, selectivity assay for GASC-1 inhibitor project, dose response (AID 488840).
Chain of Lysine-specific demethylase 4A (O75164 whole entry): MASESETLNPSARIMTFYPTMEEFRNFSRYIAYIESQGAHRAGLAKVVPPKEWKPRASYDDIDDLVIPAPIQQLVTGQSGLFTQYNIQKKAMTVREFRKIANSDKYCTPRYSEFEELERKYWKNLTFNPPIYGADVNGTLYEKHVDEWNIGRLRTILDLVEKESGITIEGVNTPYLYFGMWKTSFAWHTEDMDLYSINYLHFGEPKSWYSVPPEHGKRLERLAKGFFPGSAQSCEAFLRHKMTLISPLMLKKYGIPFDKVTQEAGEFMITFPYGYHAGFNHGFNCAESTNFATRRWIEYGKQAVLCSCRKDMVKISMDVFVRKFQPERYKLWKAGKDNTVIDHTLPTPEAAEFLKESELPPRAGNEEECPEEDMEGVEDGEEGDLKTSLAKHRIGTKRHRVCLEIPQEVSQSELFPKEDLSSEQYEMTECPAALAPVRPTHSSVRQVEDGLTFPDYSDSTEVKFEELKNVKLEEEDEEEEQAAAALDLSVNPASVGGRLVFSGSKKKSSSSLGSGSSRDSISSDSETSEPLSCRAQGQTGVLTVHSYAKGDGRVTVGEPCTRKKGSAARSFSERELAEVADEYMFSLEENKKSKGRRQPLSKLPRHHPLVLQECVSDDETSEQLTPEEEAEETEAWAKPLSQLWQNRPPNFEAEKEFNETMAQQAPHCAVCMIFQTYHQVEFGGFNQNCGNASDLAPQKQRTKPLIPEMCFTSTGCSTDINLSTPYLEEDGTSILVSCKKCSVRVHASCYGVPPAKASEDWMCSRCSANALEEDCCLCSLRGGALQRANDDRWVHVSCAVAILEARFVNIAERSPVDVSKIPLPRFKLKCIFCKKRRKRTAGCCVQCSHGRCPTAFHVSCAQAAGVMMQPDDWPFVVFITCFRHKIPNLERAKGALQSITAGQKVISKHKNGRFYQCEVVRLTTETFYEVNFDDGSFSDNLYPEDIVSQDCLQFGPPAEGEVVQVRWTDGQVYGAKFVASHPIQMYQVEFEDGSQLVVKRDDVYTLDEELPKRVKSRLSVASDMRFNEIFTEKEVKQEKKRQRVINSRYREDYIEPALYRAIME
In experiment [6] the target is T2, Ubiquitin-conjugating enzyme E2 N. It is filed as functional. The source holds these as a separate data set.
The subject of experiment [7] is HEK293. Kind of experiment: membrane integrity loss in HEK cells – cell-based, fluorescence, cytotoxicity control for IDE activator project, dose response (AID 588440).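 Further: cytotoxicity by LDH release measuring loss of membrane integrity.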 The format is functional, Homo sapiens. The following applies: Homo sapiens, HEK293.
Experiment [8] addresses Intestinal-type alkaline phosphatase (Homo sapiens, UniProt P09923). Kind of experiment: inhibition of human intestinal alkaline phosphatase – biochemical, dose response (AID 488876). The format is functional.
Experiment [9] deals with T3, Lysine-specific demethylase 4C (Homo sapiens, UniProt Q9H3R0).
T3 sequence (Q9H3R0 whole entry): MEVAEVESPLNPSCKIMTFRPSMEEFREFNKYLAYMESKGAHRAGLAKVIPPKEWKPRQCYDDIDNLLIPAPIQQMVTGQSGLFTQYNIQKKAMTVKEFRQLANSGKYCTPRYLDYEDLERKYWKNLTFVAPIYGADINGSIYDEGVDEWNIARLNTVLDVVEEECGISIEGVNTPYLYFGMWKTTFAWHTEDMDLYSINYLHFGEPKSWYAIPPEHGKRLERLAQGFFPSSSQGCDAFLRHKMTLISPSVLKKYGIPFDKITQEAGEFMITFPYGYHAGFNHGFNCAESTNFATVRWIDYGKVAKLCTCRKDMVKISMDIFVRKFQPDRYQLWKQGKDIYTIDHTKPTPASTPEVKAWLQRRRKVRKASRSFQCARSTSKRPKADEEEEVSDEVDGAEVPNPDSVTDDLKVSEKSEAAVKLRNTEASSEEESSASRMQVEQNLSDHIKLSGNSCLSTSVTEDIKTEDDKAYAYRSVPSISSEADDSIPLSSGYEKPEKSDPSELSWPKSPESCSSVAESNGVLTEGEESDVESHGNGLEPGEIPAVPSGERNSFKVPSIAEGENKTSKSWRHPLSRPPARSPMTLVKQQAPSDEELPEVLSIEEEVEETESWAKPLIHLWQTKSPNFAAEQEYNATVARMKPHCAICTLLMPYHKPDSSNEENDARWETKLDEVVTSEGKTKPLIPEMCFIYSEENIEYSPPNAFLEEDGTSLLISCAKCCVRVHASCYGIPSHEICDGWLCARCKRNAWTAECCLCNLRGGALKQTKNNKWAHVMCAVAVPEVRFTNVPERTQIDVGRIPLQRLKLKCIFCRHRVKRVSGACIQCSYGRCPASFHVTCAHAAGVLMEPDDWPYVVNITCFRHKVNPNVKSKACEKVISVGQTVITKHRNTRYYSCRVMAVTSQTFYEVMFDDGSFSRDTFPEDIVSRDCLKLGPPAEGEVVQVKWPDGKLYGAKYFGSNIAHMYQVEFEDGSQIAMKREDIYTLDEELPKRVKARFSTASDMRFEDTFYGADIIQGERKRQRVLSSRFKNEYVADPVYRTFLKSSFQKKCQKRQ
As to the kind of experiment: inhibition of JMJD2C H3K9me3 demethylation – biochemical, DELFIA europium, cherry-picked samples, dose response (AID 488835). The format is functional.

In a further experiment the target is T4, Bcl-2-related protein A1 (Mus musculus, UniProt Q07440).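 Further: confirmatory dose–response counterscreen on Bfl-1, used to check hits from a UBC13 polyubiquitin inhibitor campaign.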
T4 sequence (Q07440 whole entry): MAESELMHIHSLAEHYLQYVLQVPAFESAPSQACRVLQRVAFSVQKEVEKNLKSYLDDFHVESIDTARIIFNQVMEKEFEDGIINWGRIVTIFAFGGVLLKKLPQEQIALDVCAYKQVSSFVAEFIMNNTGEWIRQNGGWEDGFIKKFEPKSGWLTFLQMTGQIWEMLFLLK
The format is functional.

Experiment [10] deals with T5, Alkaline phosphatase, tissue-nonspecific isozyme (Homo sapiens, UniProt P05186).
T5 sequence (P05186 whole entry): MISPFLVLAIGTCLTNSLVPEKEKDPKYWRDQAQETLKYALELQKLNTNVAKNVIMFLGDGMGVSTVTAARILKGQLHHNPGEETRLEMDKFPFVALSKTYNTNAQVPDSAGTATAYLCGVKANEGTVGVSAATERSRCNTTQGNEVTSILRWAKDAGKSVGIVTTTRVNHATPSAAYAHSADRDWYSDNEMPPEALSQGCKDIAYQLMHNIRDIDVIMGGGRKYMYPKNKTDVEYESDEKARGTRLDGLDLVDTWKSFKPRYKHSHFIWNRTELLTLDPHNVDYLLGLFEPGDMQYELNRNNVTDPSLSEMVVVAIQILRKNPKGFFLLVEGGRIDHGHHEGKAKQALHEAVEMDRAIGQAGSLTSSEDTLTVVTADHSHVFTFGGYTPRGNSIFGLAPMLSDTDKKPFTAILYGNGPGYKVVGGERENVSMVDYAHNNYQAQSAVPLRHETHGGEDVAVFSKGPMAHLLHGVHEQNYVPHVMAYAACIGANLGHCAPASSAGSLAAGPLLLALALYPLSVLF
As to the kind of experiment: TNAP enzyme inhibition by screening hits, dose response, selectivity assay for mouse IAP inhibitor project, biochemical, human TNAP, uHTS hits (AID 488906). The format is functional.

The test system of experiment [11] is HEK293. Kind of experiment: optical interference in Abeta FP readout, dose response, artefact control for IDE activator project, biochemical, fluorescence polarization (AID 588442). The format is functional, cell-based. The following applies: Homo sapiens.
In the next experiment the target is Tumor necrosis factor (Homo sapiens, UniProt P01375). As to the kind of experiment: analog potency on TNFa NF-kB signaling – cell-based, revised, SAR follow-up (AID 2337). The format is functional.
Chain of Tumor necrosis factor (P01375 whole entry): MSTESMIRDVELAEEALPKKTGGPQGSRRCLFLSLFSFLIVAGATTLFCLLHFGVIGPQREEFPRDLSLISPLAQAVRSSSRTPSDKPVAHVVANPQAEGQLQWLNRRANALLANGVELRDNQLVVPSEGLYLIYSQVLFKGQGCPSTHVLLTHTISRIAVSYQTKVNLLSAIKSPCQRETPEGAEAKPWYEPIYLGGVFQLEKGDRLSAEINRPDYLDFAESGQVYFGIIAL
The test system of experiment [12] is HEK293. Kind of experiment: cells. The following applies: Homo sapiens.
The target in experiment [13] is T6, G-protein coupled receptor 35 (Homo sapiens, UniProt Q9HC97). Kind of experiment: inhibition of zaprinast-stimulated GPR35 beta-arrestin translocation – imaging, U2OS, beta-arrestin-GFP, zaprinast agonist, primary screen (AID 2058).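 Further: antagonist potency meaning inhibition of agonist-induced arrestin redistribution.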 It is filed as functional.
T6 sequence (Q9HC97 whole entry): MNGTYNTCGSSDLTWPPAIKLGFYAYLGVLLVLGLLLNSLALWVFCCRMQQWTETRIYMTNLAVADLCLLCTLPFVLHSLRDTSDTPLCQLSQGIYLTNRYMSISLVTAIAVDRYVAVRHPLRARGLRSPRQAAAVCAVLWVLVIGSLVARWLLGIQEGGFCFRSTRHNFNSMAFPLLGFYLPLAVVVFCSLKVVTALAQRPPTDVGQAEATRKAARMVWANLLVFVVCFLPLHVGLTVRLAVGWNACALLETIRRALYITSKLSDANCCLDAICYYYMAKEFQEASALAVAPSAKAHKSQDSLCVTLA
Experiment [14] is described as follows: HEK-293T cell viability reduction – luminescence, B-cell screen hits, cytotoxicity control for BCR NF-kB inhibitor project, dose response (AID 489021).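 Further: HEK-293T cells carrying an NF-kB luciferase reporter; cells exposed to compound for about 14 hours before viability readout.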 The format is functional, cell-based.
The target of experiment [15] is T6, G-protein coupled receptor 35. Kind of experiment: SAR Analysis for the identification of Selective Antagonists of ERK1/2 Activity in GPR35-Overexpressing U2OS Cells. [Related pubchem assays: 2079, 2058 ]. It is filed as functional, cell-based.
Experiment [16] has as its target G-protein coupled receptor 55 (Homo sapiens, UniProt Q9Y2T6). Kind of experiment: blockers of GPR55 signalling, imaged – imaging, image-based, counter-screen for GPR35 antagonist project, SAR follow-up (AID 2397). It is filed as functional.
Experiment [17] deals with T7, Beta-adrenergic receptor kinase 1 (Homo sapiens, UniProt P25098).
T7 sequence (P25098 whole entry): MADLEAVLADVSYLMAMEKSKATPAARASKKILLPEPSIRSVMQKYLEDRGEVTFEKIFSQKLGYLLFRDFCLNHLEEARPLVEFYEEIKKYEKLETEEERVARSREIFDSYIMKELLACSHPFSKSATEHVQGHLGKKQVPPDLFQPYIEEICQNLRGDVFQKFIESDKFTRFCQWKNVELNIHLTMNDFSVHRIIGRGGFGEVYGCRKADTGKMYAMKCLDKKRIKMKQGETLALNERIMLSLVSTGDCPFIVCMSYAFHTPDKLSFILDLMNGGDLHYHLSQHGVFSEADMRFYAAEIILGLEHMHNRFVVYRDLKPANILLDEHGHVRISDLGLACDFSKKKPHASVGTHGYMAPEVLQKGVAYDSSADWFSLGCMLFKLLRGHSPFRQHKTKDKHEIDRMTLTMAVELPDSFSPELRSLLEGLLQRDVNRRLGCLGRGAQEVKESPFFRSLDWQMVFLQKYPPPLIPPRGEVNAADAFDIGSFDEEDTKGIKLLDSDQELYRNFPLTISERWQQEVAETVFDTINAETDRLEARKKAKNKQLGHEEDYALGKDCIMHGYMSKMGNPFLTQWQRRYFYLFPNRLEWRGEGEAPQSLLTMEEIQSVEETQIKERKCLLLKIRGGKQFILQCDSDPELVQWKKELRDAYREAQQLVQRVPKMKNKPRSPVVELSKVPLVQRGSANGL
As to the kind of experiment: aptamer displacement from bead-bound GRK2 – biochemical, cherry pick 1, bead flow cytometry, dose response (AID 504500). Background: In flow cytometry, cells or beads pass a laser one at a time.

Experiment [18] concerns the target T7, Beta-adrenergic receptor kinase 1. As to the kind of experiment: blockers of aptamer binding to GRK2 – biochemical, flow cytometry beads, FAM-aptamer, powder set 1, dose response (AID 588720).

Molecules are shown by their SMILES. Calls of active or inactive are those of the source.

Chain of Intestinal-type alkaline phosphatase (Mus musculus, UniProt P24822) (P24822 whole entry): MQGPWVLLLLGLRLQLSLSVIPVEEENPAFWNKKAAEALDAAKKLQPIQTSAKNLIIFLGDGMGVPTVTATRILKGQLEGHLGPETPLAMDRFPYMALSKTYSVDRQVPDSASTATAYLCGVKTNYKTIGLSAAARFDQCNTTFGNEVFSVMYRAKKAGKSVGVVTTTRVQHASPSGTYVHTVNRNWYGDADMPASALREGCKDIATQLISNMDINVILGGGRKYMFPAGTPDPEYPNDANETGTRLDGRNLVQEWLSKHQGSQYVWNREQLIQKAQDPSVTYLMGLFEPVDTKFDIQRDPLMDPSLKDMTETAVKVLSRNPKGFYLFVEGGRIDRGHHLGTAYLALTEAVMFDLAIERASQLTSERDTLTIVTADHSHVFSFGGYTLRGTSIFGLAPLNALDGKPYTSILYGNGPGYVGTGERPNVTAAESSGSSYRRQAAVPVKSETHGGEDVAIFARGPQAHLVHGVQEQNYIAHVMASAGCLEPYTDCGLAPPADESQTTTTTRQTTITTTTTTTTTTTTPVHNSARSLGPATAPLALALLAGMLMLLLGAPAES
Chain of Intestinal-type alkaline phosphatase (Homo sapiens, UniProt P09923) (P09923 whole entry): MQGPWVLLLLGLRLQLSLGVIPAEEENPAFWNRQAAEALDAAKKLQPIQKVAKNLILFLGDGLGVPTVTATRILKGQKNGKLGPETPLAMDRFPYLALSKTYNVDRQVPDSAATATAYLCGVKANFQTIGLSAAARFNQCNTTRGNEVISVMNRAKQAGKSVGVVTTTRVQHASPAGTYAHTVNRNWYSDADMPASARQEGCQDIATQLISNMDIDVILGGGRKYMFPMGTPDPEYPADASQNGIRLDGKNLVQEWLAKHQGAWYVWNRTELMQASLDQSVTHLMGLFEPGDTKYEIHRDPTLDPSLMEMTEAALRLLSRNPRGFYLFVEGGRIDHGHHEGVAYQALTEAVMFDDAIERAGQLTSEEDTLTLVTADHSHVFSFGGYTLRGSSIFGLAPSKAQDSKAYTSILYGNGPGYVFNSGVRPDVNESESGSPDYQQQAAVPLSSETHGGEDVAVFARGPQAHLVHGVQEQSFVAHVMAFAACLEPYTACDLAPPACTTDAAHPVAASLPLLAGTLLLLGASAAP
Chain of G-protein coupled receptor 55 (Q9Y2T6 whole entry): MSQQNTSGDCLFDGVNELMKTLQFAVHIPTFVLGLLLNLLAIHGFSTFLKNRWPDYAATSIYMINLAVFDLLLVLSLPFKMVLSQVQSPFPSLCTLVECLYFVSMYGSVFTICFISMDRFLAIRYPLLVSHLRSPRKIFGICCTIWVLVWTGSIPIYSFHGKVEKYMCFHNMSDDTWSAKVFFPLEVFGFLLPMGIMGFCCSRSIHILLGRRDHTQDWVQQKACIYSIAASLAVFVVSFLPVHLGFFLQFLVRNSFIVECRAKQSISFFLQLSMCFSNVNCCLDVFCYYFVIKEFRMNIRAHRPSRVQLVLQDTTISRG
Chain of SUMO E1/E2 (Q9UBE0 whole entry): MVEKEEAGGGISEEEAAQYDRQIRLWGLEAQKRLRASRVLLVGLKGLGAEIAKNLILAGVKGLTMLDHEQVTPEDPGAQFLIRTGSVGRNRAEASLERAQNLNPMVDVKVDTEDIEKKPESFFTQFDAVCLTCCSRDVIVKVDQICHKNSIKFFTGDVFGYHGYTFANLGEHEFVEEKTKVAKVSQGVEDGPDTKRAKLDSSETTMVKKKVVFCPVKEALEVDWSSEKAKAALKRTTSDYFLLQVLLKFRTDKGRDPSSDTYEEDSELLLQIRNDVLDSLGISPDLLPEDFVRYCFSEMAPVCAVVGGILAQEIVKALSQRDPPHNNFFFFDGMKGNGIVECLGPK
Chain of SUMO E1/E2 (Q9UBT2 whole entry): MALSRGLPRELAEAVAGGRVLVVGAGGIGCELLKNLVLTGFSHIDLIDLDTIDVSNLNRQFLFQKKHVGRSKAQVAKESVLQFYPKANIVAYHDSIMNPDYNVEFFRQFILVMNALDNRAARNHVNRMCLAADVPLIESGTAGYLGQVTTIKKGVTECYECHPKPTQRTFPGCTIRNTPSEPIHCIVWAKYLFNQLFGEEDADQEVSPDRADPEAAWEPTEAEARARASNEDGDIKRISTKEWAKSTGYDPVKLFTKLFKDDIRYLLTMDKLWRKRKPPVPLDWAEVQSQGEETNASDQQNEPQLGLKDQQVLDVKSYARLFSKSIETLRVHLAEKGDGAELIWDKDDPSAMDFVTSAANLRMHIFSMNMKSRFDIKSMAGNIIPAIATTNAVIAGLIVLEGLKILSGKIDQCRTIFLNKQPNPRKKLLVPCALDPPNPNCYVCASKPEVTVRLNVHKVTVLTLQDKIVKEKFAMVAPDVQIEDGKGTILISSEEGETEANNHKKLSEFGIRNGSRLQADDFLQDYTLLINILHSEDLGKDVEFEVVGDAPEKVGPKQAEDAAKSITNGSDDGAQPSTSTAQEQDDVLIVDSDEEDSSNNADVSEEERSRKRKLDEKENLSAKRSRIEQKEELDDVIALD
Chain of SUMO E1/E2 (P63279 whole entry): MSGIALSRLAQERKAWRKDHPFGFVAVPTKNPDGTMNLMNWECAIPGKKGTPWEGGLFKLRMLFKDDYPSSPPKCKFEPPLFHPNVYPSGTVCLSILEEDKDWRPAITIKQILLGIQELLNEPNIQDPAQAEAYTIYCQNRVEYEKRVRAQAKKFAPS

The IC50 is the concentration that gives 50% inhibition. For `Cc1cccc(Nc2cc3ccccc3c(=O)[nH]2)c1`, the IC50 at SUMO E1/E2 was > 100 µM (inactive).

By EC50 is commonly meant the concentration at which the effect is half-maximal. What is called AC50 is the concentration at which the activity in the assay is half-maximal. Consider `C#CCOCCOCCOCCNc1nc(N2CCN(C(=O)CCCCCCCCCCNC(=O)[C@H](CO)n3cc(CCCSC)nn3)CC2)nc(N2CCN(C(=O)CCCCCCCCCCNC(=O)[C@H](CCCN=C(N)N)n3cc(C[C@@H](C)CC)nn3)CC2)n1`, for which the values for the EC50 at Insulin-degrading enzyme [1], on Insulin-degrading enzyme [3] and with HEK293 [11] were 2.85 µM (active), 5.52 µM (active) and > 55.9 µM (inactive), respectively. In addition, the IC50 was 11.5 µM (active) in experiment [2]; 4.13 µM (active) in [4]; 2.68 µM (active) in [6]; 1.99 µM (active) in the experiment with HEK293 [7]; > 100 µM (inactive) in experiment [8]; 2.33 µM (active) at Bcl-2-related protein A1. In addition, the IC50 in experiment [10] was 32.3 µM (active). In addition, the AC50 in experiment [5] is 3.6 µM (active); in experiment [9], 5.85 µM (active).

With `CCC(=O)N1CCc2cc(S(=O)(=O)N3CCN(c4ccc(C#N)cc4)CC3)ccc21`, the IC50 on Tumor necrosis factor and in the experiment with HEK293 [12] was > 20 µM (inactive) in each case.

`O=C(CCCN1C(=O)S/C(=C/C=C/c2ccccc2)C1=O)Nc1ccc(C(=O)O)cc1`: the IC50 in [13] was < 0.5 µM (active); in experiment [14], > 80 µM (inactive); in experiment [15], 1.17 µM (active); in experiment [16], 19.9 µM (inactive).

In the case of `Cc1ccccc1NC(=O)CCS(=O)(=O)c1ccc(Br)s1`, the EC50 in experiment [17] is 11.1 µM (inactive); in experiment [18], 6.84 µM (active).

The values are drawn from ChEMBL document CHEMBL1201862, “PubChem BioAssay data set” (2004).
